In patent publication US9127001B2, “Substituted 4,5,6,7-tetrahydro-1H-pyrazolo[4,3-c]pyridines, their use as medicament, and pharmaceutical preparations comprising them” (Sanofi, priority 2011, dated 2015) one finds inhibition and IC50 data, which are given here for 31 compounds.

Molecules are shown by their SMILES. Bounds are passed on as bounds.

Sequence of Human TASK-1 channels (O14649 whole entry): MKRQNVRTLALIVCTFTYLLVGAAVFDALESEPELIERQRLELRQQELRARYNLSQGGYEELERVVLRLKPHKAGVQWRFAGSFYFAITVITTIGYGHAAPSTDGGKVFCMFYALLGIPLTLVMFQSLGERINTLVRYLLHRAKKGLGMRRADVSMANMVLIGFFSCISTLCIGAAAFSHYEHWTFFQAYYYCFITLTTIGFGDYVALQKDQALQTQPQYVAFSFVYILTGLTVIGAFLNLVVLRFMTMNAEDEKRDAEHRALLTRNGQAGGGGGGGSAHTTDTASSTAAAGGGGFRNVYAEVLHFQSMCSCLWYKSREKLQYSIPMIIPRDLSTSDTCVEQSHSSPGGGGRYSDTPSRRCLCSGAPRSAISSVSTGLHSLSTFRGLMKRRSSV

One experiment concerns the target Human TASK-1 channels (Homo sapiens (Human), UniProt O14649). The experiment in a line: Activity on the TASK-1 channel in Xenopus oocytes (two-microelectrode voltage clamp). It counts as cell-based.
Conditions: not given
On the procedure: Human TASK-1 channels were expressed in Xenopus oocytes. For this purpose, oocytes were isolated from Xenopus laevis and defoliculated. Subsequently, TASK-1-encoding RNA synthesized in vitro was injected into oocytes. […] Data were acquired and analyzed using a TEC-10cx amplifier (NPI Electronic, Tamm, Germany) connected to an ITC-16 interface (Instrutech Corp., Long Island, USA) and Pulse software (HEKA Elektronik, Lambrecht, Germany). […] Oocytes were continuously superfused with ND96 buffer containing: NaCl 96 mM, KCl 2 mM, CaCl2 1.8 mM, MgCl2 1 mM, HEPES 5 mM (pH adjusted to 7.4 with NaOH). All experiments were performed at room temperature.
Test substances were consecutively added to the bath solution at rising concentrations. […] IC50 values were obtained by fitting the data to the general dose-response equation.
The compound `CC(=O)N1CCc2c(c(-c3cccc(C)c3)nn2Cc2ccccc2F)C1` [Example 6bb, 1-[1-(2-Fluoro-benzyl)-3-m-tolyl-1,4,6,7-tetrahydro-pyrazolo[4,3-c]pyridin-5-yl]-ethanone] had an inhibition at 5 µM of 82%.

Turning to `COc1ccccc1Cn1nc(-c2cccc(C(F)(F)F)c2)c2c1CCN(C(C)=O)C2` [Example 6bc, 1-[1-(2-Methoxy-benzyl)-3-(3-trifluoromethyl-phenyl)-1,4,6,7-tetrahydro-pyrazolo[4,3-c]pyridin-5-yl]-ethanone], the inhibition at 5 µM was 70%.

`CC(=O)N1CCc2c(c(-c3cccc(C(F)(F)F)c3)nn2Cc2ccc(C)cc2F)C1` [Example 6bn, 1-[1-(2-Fluoro-4-methyl-benzyl)-3-(3-trifluoromethyl-phenyl)-1,4,6,7-tetrahydro-pyrazolo[4,3-c]pyridin-5-yl]-ethanone] yielded an inhibition at 5 µM of 81%.

Turning to `CC(=O)N1CCc2c(c(-c3ccnc(Br)c3)nn2Cc2ccc(F)cc2F)C1` [Example 6k, 1-[3-(2-Bromo-pyridin-4-yl)-1-(2,4-difluoro-benzyl)-1,4,6,7-tetrahydro-pyrazolo[4,3-c]pyridin-5-yl]-ethanone], the inhibition at 5 µM turned out to be 78%.

With `CC(=O)N1CCc2c(c(-c3cccc(C)c3)nn2Cc2ccc(Cl)nc2)C1` [Example 6p, 1-[1-(6-Chloro-pyridin-3-ylmethyl)-3-m-tolyl-1,4,6,7-tetrahydro-pyrazolo[4,3-c]pyridin-5-yl]-ethanone], the inhibition at 5 µM was found to be 88%.

Turning to `COc1ccnc(Cn2nc(-c3cccc(C(F)(F)F)c3)c3c2CCN(C(C)=O)C3)c1` [Example 6q, 1-[1-(4-Methoxy-pyridin-2-ylmethyl)-3-(3-trifluoromethyl-phenyl)-1,4,6,7-tetrahydro-pyrazolo[4,3-c]pyridin-5-yl]-ethanone], at 5 µM the inhibition was 70%.

`CC(=O)N1CCc2c(c(-c3cccc(C)c3)nn2Cc2cnccc2Cl)C1` [Example 6r, 1-[1-(4-Chloro-pyridin-3-ylmethyl)-3-m-tolyl-1,4,6,7-tetrahydro-pyrazolo[4,3-c]pyridin-5-yl]-ethanone]: the inhibition at 5 µM amounted to 79%.

`COc1cccnc1Cn1nc(-c2cccc(C(F)(F)F)c2)c2c1CCN(C(C)=O)C2` [Example 6s, 1-[1-(3-Methoxy-pyridin-2-ylmethyl)-3-(3-trifluoromethyl-phenyl)-1,4,6,7-tetrahydro-pyrazolo[4,3-c]pyridin-5-yl]-ethanone]: the inhibition at 5 µM was found to be 83%.

For the compound `CC(=O)N1CCc2c(c(-c3cccc(Cl)c3)nn2Cc2ncccc2C)C1` [Example 6t, 1-[3-(3-Chloro-phenyl)-1-(3-methyl-pyridin-2-ylmethyl)-1,4,6,7-tetrahydro-pyrazolo[4,3-c]pyridin-5-yl]-ethanone], testing at 5 µM gave an inhibition of 62%.

`CC(=O)N1CCc2c(c(-c3cccc(C(F)(F)F)n3)nn2C(C)c2ccc(F)cc2)C1` (stereo not shown) [Example 6u, 1-[1-[1-(4-Fluoro-phenyl)-ethyl]-3-(6-trifluoromethyl-pyridin-2-yl)-1,4,6,7-tetrahydro-pyrazolo[4,3-c]pyridin-5-yl]-ethanone] had an inhibition at 5 µM of 89%.

`CC(=O)N1CCc2c(c(-c3cccc(C)n3)nn2Cc2ccc(F)cc2F)C1` [Example 6v, 1-[1-(2,4-Difluoro-benzyl)-3-(6-methyl-pyridin-2-yl)-1,4,6,7-tetrahydro-pyrazolo[4,3-c]pyridin-5-yl]-ethanone] returned an inhibition at 5 µM of 73%.

In turn, `CC(=O)N1CCc2c(c(-c3cc(C)ccn3)nn2Cc2ccc(F)cc2F)C1` [Example 6x, 1-[1-(2,4-Difluoro-benzyl)-3-(4-methyl-pyridin-2-yl)-1,4,6,7-tetrahydro-pyrazolo[4,3-c]pyridin-5-yl]-ethanone] returned an inhibition at 5 µM of 82%.

Compound `COc1cccc(-c2nn(Cc3ccc(F)cc3F)c3c2CN(C(C)=O)CC3)n1` [Example 6y, 1-[1-(2,4-Difluoro-benzyl)-3-(6-methoxy-pyridin-2-yl)-1,4,6,7-tetrahydro-pyrazolo[4,3-c]pyridin-5-yl]-ethanone] displayed an inhibition at 5 µM of 86%.

Consider `COc1ccc(-c2nn(Cc3ccc(F)cc3F)c3c2CN(C(C)=O)CC3)nc1Cl` [Example 6z, 1-[3-(6-Chloro-5-methoxy-pyridin-2-yl)-1-(2,4-difluoro-benzyl)-1,4,6,7-tetrahydro-pyrazolo[4,3-c]pyridin-5-yl]-ethanone], for which at 5 µM the inhibition was 75%.

The experiment is the same for the next values; noted with them: human TASK-1 expressed in Xenopus oocytes, currents during pulses to 40 mV, room temperature.
Consider `COc1cccc(Cn2nc(-c3cccc(Cl)c3)c3c2CCN(C(C)=O)C3)c1` [Example 6bd, 1-[3-(3-Chloro-phenyl)-1-(3-methoxy-benzyl)-1,4,6,7-tetrahydro-pyrazolo[4,3-c]pyridin-5-yl]-ethanone], for which the concentration for half-maximal inhibition (IC50) was < 10000 nM.

Regarding `CC(=O)N1CCc2c(c(-c3ccc(F)cc3)nn2Cc2ccc(Cl)c(F)c2)C1` [Example 6bg, 1-[1-(4-Chloro-3-fluoro-benzyl)-3-(4-fluoro-phenyl)-1,4,6,7-tetrahydro-pyrazolo[4,3-c]pyridin-5-yl]-ethanone], inhibition was half-maximal at 398 nM (IC50).

Turning to `COc1ccc(F)c(-c2nn(Cc3ccc(F)cc3F)c3c2CN(C(C)=O)CC3)c1` [Example 6bh, 1-[1-(2,4-Difluoro-benzyl)-3-(2-fluoro-5-methoxy-phenyl)-1,4,6,7-tetrahydro-pyrazolo[4,3-c]pyridin-5-yl]-ethanone], the IC50 is < 10000 nM.

Turning to `CC(=O)N1CCc2c(c(-c3ccc(F)c(C#N)c3)nn2Cc2ccc(F)cc2F)C1` [Example 6bi, 5-[5-Acetyl-1-(2,4-difluoro-benzyl)-4,5,6,7-tetrahydro-1H-pyrazolo[4,3-c]pyridin-3-yl]-2-fluoro-benzonitrile], the IC50 was 1640 nM.

For the compound `CC(=O)N1CCc2c(c(-c3cccc(F)c3)nn2Cc2ccc(F)cc2F)C1` [Example 6bj, 1-[1-(2,4-Difluoro-benzyl)-3-(3-fluoro-phenyl)-1,4,6,7-tetrahydro-pyrazolo[4,3-c]pyridin-5-yl]-ethanone], the 50% inhibitory concentration (IC50) turned out to be 1160 nM.

For `CC(=O)N1CCc2c(c(-c3ccc(C(F)(F)F)cc3)nn2Cc2ccc(F)cc2F)C1` [Example 6bk, 1-[1-(2,4-Difluoro-benzyl)-3-(4-trifluoromethyl-phenyl)-1,4,6,7-tetrahydro-pyrazolo[4,3-c]pyridin-5-yl]-ethanone], half-maximal inhibition (IC50) required 1150 nM.

Consider `CC(=O)N1CCc2c(c(-c3cccc(C(F)(F)F)c3)nn2Cc2cnccc2Cl)C1` [Example 6c, 1-[1-(4-Chloro-pyridin-3-ylmethyl)-3-(3-trifluoromethyl-phenyl)-1,4,6,7-tetrahydro-pyrazolo[4,3-c]pyridin-5-yl]-ethanone], for which the 50% inhibitory concentration (IC50) turned out to be 215 nM.

For `CC(=O)N1CCc2c(c(-c3cccc(C(F)(F)F)c3)nn2Cc2ncccc2C)C1` [Example 6d, 1-[1-(3-Methyl-pyridin-2-ylmethyl)-3-(3-trifluoromethyl-phenyl)-1,4,6,7-tetrahydro-pyrazolo[4,3-c]pyridin-5-yl]-ethanone], the midpoint of inhibition, the IC50, lay at 422 nM.

Regarding `CC(=O)N1CCc2c(c(-c3ccc(F)cc3)nn2Cc2ccc(F)cc2F)C1` [Example 6f, 1-[1-(2,4-Difluoro-benzyl)-3-(4-fluoro-phenyl)-1,4,6,7-tetrahydro-pyrazolo[4,3-c]pyridin-5-yl]-ethanone], the IC50 was 598 nM.

As to `CC(=O)N1CCc2c(c(-c3cccc(C(F)(F)F)n3)nn2Cc2ccc(F)cc2)C1` [Example 6g, 1-[1-(4-Fluoro-benzyl)-3-(6-trifluoromethyl-pyridin-2-yl)-1,4,6,7-tetrahydro-pyrazolo[4,3-c]pyridin-5-yl]-ethanone], the IC50 came to 99.5 nM.

Compound `CC(=O)N1CCc2c(c(-c3cc(C(F)(F)F)ccn3)nn2Cc2ccc(F)cc2F)C1` [Example 6h, 1-[1-(2,4-Difluoro-benzyl)-3-(4-trifluoromethyl-pyridin-2-yl)-1,4,6,7-tetrahydro-pyrazolo[4,3-c]pyridin-5-yl]-ethanone] displayed a concentration for half-maximal inhibition (IC50) of 190 nM.

In turn, `CC(=O)N1CCc2c(c(-c3cccc(C(F)(F)F)n3)nn2Cc2ccc(F)cc2F)C1` [Example 6i, 1-[1-(2,4-Difluoro-benzyl)-3-(6-trifluoromethyl-pyridin-2-yl)-1,4,6,7-tetrahydro-pyrazolo[4,3-c]pyridin-5-yl]-ethanone] displayed an IC50 of 216 nM.

As to `CC(=O)N1CCc2c(c(-c3cc(Br)ccn3)nn2Cc2ccc(F)cc2F)C1` [Example 6j, 1-[3-(4-Bromo-pyridin-2-yl)-1-(2,4-difluoro-benzyl)-1,4,6,7-tetrahydro-pyrazolo[4,3-c]pyridin-5-yl]-ethanone], the IC50 is < 10000 nM.

Take `CC(=O)N1CCc2c(c(-c3cncc(Br)c3)nn2Cc2ccc(F)cc2F)C1` [Example 6m, 1-[3-(5-Bromo-pyridin-3-yl)-1-(2,4-difluoro-benzyl)-1,4,6,7-tetrahydro-pyrazolo[4,3-c]pyridin-5-yl]-ethanone]: the half-maximal inhibitory concentration (IC50) stood at 2440 nM.

The compound `CC(=O)N1C2CCC1c1c(-c3cccc(C#N)c3)nn(Cc3ccc(F)cc3F)c1C2` (stereo not shown) [Example 6n, 3-[11-Acetyl-5-(2,4-difluoro-benzyl)-4,5,11-triaza-tricyclo[6.2.1.02,6]undeca-2(6),3-dien-3-yl]-benzonitrile] displayed an IC50 of 91 nM.

On to `CC(=O)N1C2CCC1c1c(-c3ccc(F)cc3)nn(Cc3ccc(F)cc3F)c1C2` (stereo not shown) [Example 6o, 1-[5-(2,4-Difluoro-benzyl)-3-(4-fluoro-phenyl)-4,5,11-triaza-tricyclo [6.2.1.02,6]undeca-2(6),3-dien-11-yl]-ethanone], for which the concentration for half-maximal inhibition (IC50) is < 10000 nM.

For the compound `CC(=O)N1CCc2c(c(-c3cccc(Br)n3)nn2Cc2ccc(F)cc2F)C1` [Example 6w, 1-[3-(6-Bromo-pyridin-2-yl)-1-(2,4-difluoro-benzyl)-1,4,6,7-tetrahydro-pyrazolo[4,3-c]pyridin-5-yl]-ethanone], the IC50 was < 10000 nM.

Usually inhibition stands for the drop in the measured response relative to a control, in per cent. Higher therefore signals a strong effect. One may read the IC50 as the concentration that inhibits the measured activity by half. Read a low IC50 as greater potency in that assay.
